In brackets after ≈: the same amount, converted by molar mass.
How the values were obtained:
Type in all cases: cell-based
Conditions in all cases: cation adjusted Mueller-Hinton broth, 35° C., 16-20 hours
[1] = tested on: Enterococcus faecium OC 3312 vancomycin-resistant; experiment: In vitro antibacterial activity, microdilution broth MIC (NCCLS M7-A4), strain A
Method: (§1) Minimum inhibitory concentration (MIC) is an indicator of in vitro antibacterial activity. […] The in vitro antimicrobial activity of representative compounds of the present invention was determined by the microdilution broth method following the test method from the National Committee for Clinical Laboratory Standards (NCCLS). This method is described in the NCCLS Document M7-A4, Vol. 17, No. 2, “Methods for Dilution Antimicrobial Susceptibility Test for Bacteria that Grow Aerobically—Fourth Edition”, which is incorporated herein by reference.
(§2) In this method two-fold serial dilutions of drug in cation adjusted Mueller-Hinton broth were added to wells in microdilution trays. The test organisms were prepared by adjusting the turbidity of actively growing broth cultures so that the final concentration of test organism after it is added to the wells was approximately 5×10^4 CFU/well. Following inoculation of the microdilution trays, the trays were incubated at 35° C. for 16-20 hours and then read. The amount of growth in the wells containing the test compound was compared with the amount of growth in the growth-control wells (no test compound) used in each tray.

[2] = tested on: Staphylococcus aureus ATCC 29213; experiment: In vitro antibacterial activity, microdilution broth MIC (NCCLS M7-A4), strain B
Method: as §1, §2

[3] = tested on: Methicillin-resistant Staphylococcus aureus OC 3726 COL; experiment: In vitro antibacterial activity, microdilution broth MIC (NCCLS M7-A4), strain C
Method: as §1, §2

[4] = tested on: Staphylococcus aureus OC4172; experiment: In vitro antibacterial activity, microdilution broth MIC (NCCLS M7-A4), strain D
Method: as §1, §2

Compound | MIC (μg/mL) A Strain [1] | MIC (μg/mL) B Strain [2] | MIC (μg/mL) C Strain [3] | MIC (μg/mL) D Strain [4]
COC1C=COC2(C)Oc3c(C)c(O)c4c(O)c(c(C=NN5CCN(Cc6cc(-c7ccccc7)no6)CC5)c(O)c4c3C2=O)NC(=O)C(C)=CC=CC(C)C(O)C(C)C(O)C(C)C(OC(C)=O)C1C (stereo not shown) [Compound 1] | 0.25 µg/mL (≈ 0.259 µM) | 0.12 µg/mL (≈ 0.124 µM) | 0.12 µg/mL (≈ 0.124 µM) | 0.12 µg/mL (≈ 0.124 µM)
COC1C=COC2(C)Oc3c(C)c(O)c4c(O)c(c(C=NN5CCN(Cc6cc(-c7ccc(Cl)cc7)no6)CC5)c(O)c4c3C2=O)NC(=O)C(C)=CC=CC(C)C(O)C(C)C(O)C(C)C(OC(C)=O)C1C (stereo not shown) [Compound 2] | 1 µg/mL (≈ 0.999 µM) | 0.5 µg/mL (≈ 0.5 µM) | 0.5 µg/mL (≈ 0.5 µM) | 0.5 µg/mL (≈ 0.5 µM)
COC1C=COC2(C)Oc3c(C)c(O)c4c(O)c(c(C=NN5CCN(Cc6cc(-c7cccc(Cl)c7)no6)CC5)c(O)c4c3C2=O)NC(=O)C(C)=CC=CC(C)C(O)C(C)C(O)C(C)C(OC(C)=O)C1C (stereo not shown) [Compound 3] | 0.5 µg/mL (≈ 0.5 µM) | 0.5 µg/mL (≈ 0.5 µM) | 0.5 µg/mL (≈ 0.5 µM) | 0.5 µg/mL (≈ 0.5 µM)
COC1C=COC2(C)Oc3c(C)c(O)c4c(O)c(c(C=NN5CCN(Cc6cc(-c7ccc(Cl)cc7Cl)no6)CC5)c(O)c4c3C2=O)NC(=O)C(C)=CC=CC(C)C(O)C(C)C(O)C(C)C(OC(C)=O)C1C (stereo not shown) [Compound 4] | 1 µg/mL (≈ 0.966 µM) | 1 µg/mL (≈ 0.966 µM) | 0.5 µg/mL (≈ 0.483 µM) | 1 µg/mL (≈ 0.966 µM)
COC1C=COC2(C)Oc3c(C)c(O)c4c(O)c(c(C=NN5CCN(Cc6cc(-c7ccc(F)cc7)no6)CC5)c(O)c4c3C2=O)NC(=O)C(C)=CC=CC(C)C(O)C(C)C(O)C(C)C(OC(C)=O)C1C (stereo not shown) [Compound 5] | 0.25 µg/mL (≈ 0.254 µM) | 0.25 µg/mL (≈ 0.254 µM) | 0.12 µg/mL (≈ 0.122 µM) | 0.12 µg/mL (≈ 0.122 µM)
COC1C=COC2(C)Oc3c(C)c(O)c4c(O)c(c(C=NN5CCN(Cc6cc(-c7ccc(F)c(F)c7)no6)CC5)c(O)c4c3C2=O)NC(=O)C(C)=CC=CC(C)C(O)C(C)C(O)C(C)C(OC(C)=O)C1C (stereo not shown) [Compound 6] | 0.5 µg/mL (≈ 0.499 µM) | 0.5 µg/mL (≈ 0.499 µM) | 0.25 µg/mL (≈ 0.249 µM) | 0.25 µg/mL (≈ 0.249 µM)
COC1C=COC2(C)Oc3c(C)c(O)c4c(O)c(c(C=NN5CCN(Cc6cc(-c7ccc(C(F)(F)F)cc7)no6)CC5)c(O)c4c3C2=O)NC(=O)C(C)=CC=CC(C)C(O)C(C)C(O)C(C)C(OC(C)=O)C1C (stereo not shown) [Compound 7] | 1 µg/mL (≈ 0.967 µM) | 0.5 µg/mL (≈ 0.484 µM) | 0.25 µg/mL (≈ 0.242 µM) | 0.12 µg/mL (≈ 0.116 µM)
COC1C=COC2(C)Oc3c(C)c(O)c4c(O)c(c(C=NN5CCN(Cc6cc(-c7ccc(C)cc7)no6)CC5)c(O)c4c3C2=O)NC(=O)C(C)=CC=CC(C)C(O)C(C)C(O)C(C)C(OC(C)=O)C1C (stereo not shown) [Compound 8] | 0.5 µg/mL (≈ 0.51 µM) | 0.5 µg/mL (≈ 0.51 µM) | 0.5 µg/mL (≈ 0.51 µM) | 0.5 µg/mL (≈ 0.51 µM)
COc1ccc(-c2cc(CN3CCN(N=Cc4c5c(O)c6c(O)c(C)c7c(c6c4O)C(=O)C(C)(OC=CC(OC)C(C)C(OC(C)=O)C(C)C(O)C(C)C(O)C(C)C=CC=C(C)C(=O)N5)O7)CC3)on2)cc1 (stereo not shown) [Compound 9] | 0.25 µg/mL (≈ 0.251 µM) | 0.25 µg/mL (≈ 0.251 µM) | 0.12 µg/mL (≈ 0.12 µM) | 0.12 µg/mL (≈ 0.12 µM)
COC1C=COC2(C)Oc3c(C)c(O)c4c(O)c(c(C=NN5CCN(Cc6cc(C)no6)CC5)c(O)c4c3C2=O)NC(=O)C(C)=CC=CC(C)C(O)C(C)C(O)C(C)C(OC(C)=O)C1C (stereo not shown) [Compound 10] | 0.06 µg/mL (≈ 0.0664 µM) | ≦0.03 μg/mL | ≦0.03 μg/mL | ≦0.03 μg/mL
COC1C=COC2(C)Oc3c(C)c(O)c4c(O)c(c(C=NN5CCN(Cc6cc(CO)no6)CC5)c(O)c4c3C2=O)NC(=O)C(C)=CC=CC(C)C(O)C(C)C(O)C(C)C(OC(C)=O)C1C (stereo not shown) [Compound 11] | 0.25 µg/mL (≈ 0.272 µM) | 0.06 µg/mL (≈ 0.0652 µM) | ≦0.03 μg/mL | ≦0.03 μg/mL
COC1C=COC2(C)Oc3c(C)c(O)c4c(O)c(c(C=NN5CCN(Cc6cc(CN(C)C)no6)CC5)c(O)c4c3C2=O)NC(=O)C(C)=CC=CC(C)C(O)C(C)C(O)C(C)C(OC(C)=O)C1C (stereo not shown) [Compound 12] | 0.12 µg/mL (≈ 0.127 µM) | 0.06 µg/mL (≈ 0.0634 µM) | ≦0.03 μg/mL | ≦0.03 μg/mL
COC1C=COC2(C)Oc3c(C)c(O)c4c(O)c(c(C=NN5CCN(Cc6cc(-c7ccccn7)no6)CC5)c(O)c4c3C2=O)NC(=O)C(C)=CC=CC(C)C(O)C(C)C(O)C(C)C(OC(C)=O)C1C (stereo not shown) [Compound 13] | 0.06 µg/mL (≈ 0.062 µM) | ≦0.03 μg/mL | ≦0.03 μg/mL | ≦0.03 μg/mL
COC1C=COC2(C)Oc3c(C)c(O)c4c(O)c(c(C=NN5CCN(Cc6cc(-c7cccnc7)no6)CC5)c(O)c4c3C2=O)NC(=O)C(C)=CC=CC(C)C(O)C(C)C(O)C(C)C(OC(C)=O)C1C (stereo not shown) [Compound 14] | 0.06 µg/mL (≈ 0.062 µM) | ≦0.03 μg/mL | ≦0.03 μg/mL | ≦0.03 μg/mL
COC1C=COC2(C)Oc3c(C)c(O)c4c(O)c(c(C=NN5CCN(Cc6cc(-c7ccncc7)no6)CC5)c(O)c4c3C2=O)NC(=O)C(C)=CC=CC(C)C(O)C(C)C(O)C(C)C(OC(C)=O)C1C (stereo not shown) [Compound 15] | 0.06 µg/mL (≈ 0.062 µM) | ≦0.03 μg/mL | ≦0.03 μg/mL | ≦0.03 μg/mL
COC1C=COC2(C)Oc3c(C)c(O)c4c(O)c(c(C=NN5CCN(Cc6cc(-c7ccc(NC(C)=O)cc7)no6)CC5)c(O)c4c3C2=O)NC(=O)C(C)=CC=CC(C)C(O)C(C)C(O)C(C)C(OC(C)=O)C1C (stereo not shown) [Compound 16] | 0.12 µg/mL (≈ 0.117 µM) | 0.06 µg/mL (≈ 0.0586 µM) | 0.06 µg/mL (≈ 0.0586 µM) | ≦0.03 μg/mL
COC1C=COC2(C)Oc3c(C)c(O)c4c(O)c(c(C=NN5CCN(Cc6cc(-c7ccc(OCCCN(C)C)cc7)no6)CC5)c(O)c4c3C2=O)NC(=O)C(C)=CC=CC(C)C(O)C(C)C(O)C(C)C(OC(C)=O)C1C (stereo not shown) [Compound 17] | 0.25 µg/mL (≈ 0.234 µM) | 0.12 µg/mL (≈ 0.112 µM) | 0.12 µg/mL (≈ 0.112 µM) | 0.12 µg/mL (≈ 0.112 µM)
COC(=O)c1c(-c2ccc(Cl)cc2)noc1CN1CCN(N=Cc2c3c(O)c4c(O)c(C)c5c(c4c2O)C(=O)C(C)(OC=CC(OC)C(C)C(OC(C)=O)C(C)C(O)C(C)C(O)C(C)C=CC=C(C)C(=O)N3)O5)CC1 (stereo not shown) [Compound 18] | 1 µg/mL (≈ 0.945 µM) | 1 µg/mL (≈ 0.945 µM) | 0.5 µg/mL (≈ 0.472 µM) | 0.5 µg/mL (≈ 0.472 µM)
COC1C=COC2(C)Oc3c(C)c(O)c4c(O)c(c(C=NN5CCN(Cc6onc(-c7ccc(Cl)cc7)c6C(=O)O)CC5)c(O)c4c3C2=O)NC(=O)C(C)=CC=CC(C)C(O)C(C)C(O)C(C)C(OC(C)=O)C1C (stereo not shown) [Compound 19] | 4 µg/mL (≈ 3.83 µM) | 1 µg/mL (≈ 0.957 µM) | 0.5 µg/mL (≈ 0.479 µM) | 0.5 µg/mL (≈ 0.479 µM)

Reference: patent US20090275594A1, “3-HYDRAZONE PIPERAZINYL RIFAMYCIN DERIVATIVES USEFUL AS ANTIMICROBIAL AGENTS” (priority 2008, published 2009)
